The target of series [1] is 72 kDa type IV collagenase (Homo sapiens, UniProt P08253). Kind of series: Inhibition of MMP2 using Mca-Pro-cyclohexyl-Ala-Gly-Nva-His-Ala- Dap(Dnp)-NH2 as substrate by fluorometric analysis. Particulars: read-out: IC50.
Series [2] can be described thus: Clearance in dog at 1 mg/kg, iv and 1 mg/kg, po. It counts as ADME, organism-based, Canis lupus familiaris. To be noted: in vivo.
A short description of series [3]: Apparent permeability across basolateral to apical side in human Caco2 cells at 10 uM. Format: ADME, cell-based. To be noted: Caco-2. (Caco-2 monolayers are a common model of the intestinal barrier.)
Series [4] addresses T1, A disintegrin and metalloproteinase with thrombospondin motifs 5 (Homo sapiens) (UniProt Q9UNA0).
T1 sequence (whole entry): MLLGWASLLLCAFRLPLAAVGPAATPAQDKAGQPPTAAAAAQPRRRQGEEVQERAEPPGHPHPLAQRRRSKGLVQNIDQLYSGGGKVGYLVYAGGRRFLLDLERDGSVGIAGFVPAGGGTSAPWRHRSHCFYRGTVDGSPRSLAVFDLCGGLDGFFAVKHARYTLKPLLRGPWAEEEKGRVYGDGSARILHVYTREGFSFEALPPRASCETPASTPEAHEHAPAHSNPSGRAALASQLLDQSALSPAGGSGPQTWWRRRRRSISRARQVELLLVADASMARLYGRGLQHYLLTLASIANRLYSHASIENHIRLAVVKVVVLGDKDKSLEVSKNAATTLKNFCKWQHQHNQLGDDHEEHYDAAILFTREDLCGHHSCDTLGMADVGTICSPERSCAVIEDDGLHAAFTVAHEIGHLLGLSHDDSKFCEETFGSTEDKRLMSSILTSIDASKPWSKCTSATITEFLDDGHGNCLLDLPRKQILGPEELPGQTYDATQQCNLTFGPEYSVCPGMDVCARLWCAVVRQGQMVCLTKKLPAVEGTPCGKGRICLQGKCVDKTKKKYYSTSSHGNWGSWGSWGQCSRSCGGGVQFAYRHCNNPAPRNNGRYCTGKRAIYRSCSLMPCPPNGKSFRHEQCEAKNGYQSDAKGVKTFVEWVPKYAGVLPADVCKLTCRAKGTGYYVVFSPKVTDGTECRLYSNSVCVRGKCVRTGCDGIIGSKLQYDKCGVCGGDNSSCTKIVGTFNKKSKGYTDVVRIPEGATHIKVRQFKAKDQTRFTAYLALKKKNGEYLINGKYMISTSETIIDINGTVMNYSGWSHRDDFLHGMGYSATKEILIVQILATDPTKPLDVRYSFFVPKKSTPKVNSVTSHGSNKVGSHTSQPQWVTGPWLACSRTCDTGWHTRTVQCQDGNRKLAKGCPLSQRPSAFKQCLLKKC
Briefly: Inhibition of ADAM-TS5 using dimethoxyfluorescein-Ser-Pro-Leu-Ala-Gln-Ala- Val-Arg-ser-Ser-Arg-Cys-fluorescein as substrate.

The nature of series [5]: Fraction unbound in human. To be noted: in vivo. Format: ADME, organism-based.
Series [6] is described as follows: Intrinsic clearance in human hepatocytes assessed per 10^6 cells. Particulars: read-out: CLH. It counts as ADME, cell-based, Hepatocyte.
Series [7] is described as follows: Fraction unbound in rat. Format: ADME, organism-based. Particulars: in vivo.
The target of series [8] is T2, A disintegrin and metalloproteinase with thrombospondin motifs 1 (Homo sapiens) (UniProt Q9UHI8).
T2 sequence (whole entry): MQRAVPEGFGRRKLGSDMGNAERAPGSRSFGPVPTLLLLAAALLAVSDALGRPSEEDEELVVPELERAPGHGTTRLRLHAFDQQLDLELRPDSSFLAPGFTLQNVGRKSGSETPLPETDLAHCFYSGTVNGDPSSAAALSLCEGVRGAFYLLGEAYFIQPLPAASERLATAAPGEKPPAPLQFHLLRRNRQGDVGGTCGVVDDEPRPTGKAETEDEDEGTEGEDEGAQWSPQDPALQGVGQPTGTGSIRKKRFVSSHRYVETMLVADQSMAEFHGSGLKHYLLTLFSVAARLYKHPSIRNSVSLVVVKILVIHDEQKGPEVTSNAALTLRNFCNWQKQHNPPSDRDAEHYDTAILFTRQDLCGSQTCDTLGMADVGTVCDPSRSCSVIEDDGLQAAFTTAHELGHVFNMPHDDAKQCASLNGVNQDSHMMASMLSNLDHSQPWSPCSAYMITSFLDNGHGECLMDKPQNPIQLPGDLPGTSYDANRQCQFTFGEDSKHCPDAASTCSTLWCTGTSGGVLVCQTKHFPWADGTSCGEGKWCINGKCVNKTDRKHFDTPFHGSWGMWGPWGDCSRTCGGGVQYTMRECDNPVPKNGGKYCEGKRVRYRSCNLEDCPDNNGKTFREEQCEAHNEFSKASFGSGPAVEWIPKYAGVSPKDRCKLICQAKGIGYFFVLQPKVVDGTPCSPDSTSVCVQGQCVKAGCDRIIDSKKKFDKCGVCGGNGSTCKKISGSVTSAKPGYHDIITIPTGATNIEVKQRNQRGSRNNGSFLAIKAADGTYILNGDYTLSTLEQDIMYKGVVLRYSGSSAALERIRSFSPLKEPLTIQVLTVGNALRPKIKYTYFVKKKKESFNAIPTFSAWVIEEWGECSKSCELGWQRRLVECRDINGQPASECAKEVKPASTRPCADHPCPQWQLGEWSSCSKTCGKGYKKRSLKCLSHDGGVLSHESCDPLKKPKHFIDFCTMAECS
Briefly: Inhibition of ADAM-TS1 dimethoxyfluorescein-Ser-Pro-Leu-Ala-Gln-Ala- Val-Arg-ser-Ser-Arg-Cys-fluorescein.

Series [9] in a line: Half life in rat at 2 mg/kg, iv. It counts as ADME, organism-based. Set-up: dose 2 mg/kg, route intravenous. To be noted: in vivo.
Series [10] deals with Macrophage metalloelastase (Homo sapiens, UniProt P39900). Briefly: Inhibition of MMP12 using Mca-Pro-cyclohexyl-Ala-Gly-Nva-His-Ala- Dap(Dnp)-NH2 as substrate by fluorometric analysis.
Macrophage metalloelastase, sequence (P39900 whole entry): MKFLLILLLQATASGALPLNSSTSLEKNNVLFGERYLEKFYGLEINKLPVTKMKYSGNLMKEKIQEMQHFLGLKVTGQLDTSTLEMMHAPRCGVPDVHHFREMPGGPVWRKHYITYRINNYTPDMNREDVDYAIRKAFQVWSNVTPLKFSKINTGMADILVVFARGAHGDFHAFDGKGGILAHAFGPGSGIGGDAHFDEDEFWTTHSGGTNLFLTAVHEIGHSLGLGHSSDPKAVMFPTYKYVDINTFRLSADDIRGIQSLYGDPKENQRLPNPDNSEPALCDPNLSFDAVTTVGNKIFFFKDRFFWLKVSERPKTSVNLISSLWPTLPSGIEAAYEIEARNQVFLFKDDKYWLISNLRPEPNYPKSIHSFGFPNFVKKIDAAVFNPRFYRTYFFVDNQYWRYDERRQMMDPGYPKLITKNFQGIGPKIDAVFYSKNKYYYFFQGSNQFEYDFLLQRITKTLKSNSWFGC
The nature of series [11]: Thermodynamic solubility of the compound. Particulars: Therm_solubility.
Series [12] is described as follows: Oral bioavailability in rat. It counts as ADME, organism-based. To be noted: in vivo.
Series [13] is described as follows: Intrinsic clearance in human microsomes. It counts as ADME, Microsome.
For a further series, the target named is Collagenase 3 (Homo sapiens, UniProt P45452). Kind of series: Inhibition of recombinant human MMP13 using Mca-Pro-cyclohexyl-Ala-Gly-Nva-His-Ala- Dap(Dnp)-NH2 as substrate by fluorometric analysis. To be noted: read-out: IC50.
Series [14] in a line: Apparent permeability across apical to basolateral side in human Caco2 cells at 10 uM. Format: ADME, cell-based. Particulars: Caco-2.

The Papp B→A is how fast a substance crosses the layer from the basolateral side. By fraction unbound is commonly meant free concentration divided by total concentration. The low end stands for little free substance, the high end for much free substance. As usually defined, the half-life is the time needed for the level to fall by half in the phase considered. A lower half-life goes with fast loss. As usually defined, the thermodynamic solubility is solubility found after equilibrating the solid with the medium. As usually defined, the bioavailability is dose-corrected exposure relative to a reference, in per cent. Higher therefore signals good availability. Broadly, the microsomal CLint is the capacity of the preparation to metabolise the compound, expressed as a volume cleared per time. Low values mean slow turnover, high ones rapid turnover. As usually defined, the Papp A→B is the apparent permeability from the apical to the basolateral side of a cell layer.

72 kDa type IV collagenase, sequence (P08253 whole entry): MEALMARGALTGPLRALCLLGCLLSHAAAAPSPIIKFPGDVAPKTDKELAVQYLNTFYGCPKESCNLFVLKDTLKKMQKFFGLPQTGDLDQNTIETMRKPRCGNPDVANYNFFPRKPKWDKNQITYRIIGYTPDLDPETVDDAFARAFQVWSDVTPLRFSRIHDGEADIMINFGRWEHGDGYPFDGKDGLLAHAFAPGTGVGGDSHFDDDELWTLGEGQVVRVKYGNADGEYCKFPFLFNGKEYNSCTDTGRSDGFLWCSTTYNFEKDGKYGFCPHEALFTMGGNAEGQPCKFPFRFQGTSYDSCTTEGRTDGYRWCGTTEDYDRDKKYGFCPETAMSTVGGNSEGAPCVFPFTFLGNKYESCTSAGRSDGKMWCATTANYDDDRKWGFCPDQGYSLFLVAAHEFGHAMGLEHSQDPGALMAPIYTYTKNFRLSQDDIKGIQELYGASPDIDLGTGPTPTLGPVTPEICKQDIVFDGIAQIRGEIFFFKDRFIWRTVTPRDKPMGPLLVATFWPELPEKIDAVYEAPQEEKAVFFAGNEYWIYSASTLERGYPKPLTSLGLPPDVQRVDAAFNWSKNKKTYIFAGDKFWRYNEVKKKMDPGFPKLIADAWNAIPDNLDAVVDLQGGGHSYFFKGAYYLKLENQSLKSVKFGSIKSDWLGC

Turning to `CN1CCC(NC(=O)c2ccc(Oc3ccc(C#C[C@]4(O)CN5CCC4CC5)cc3)cc2)CC1`, the IC50 in [1] was 7.3 µM; in [10] (read-out: IC50), over 8 µM; in [10] (read-out: pIC50 (converted)), 7.94 µM; at Collagenase 3, 0.074 µM. The molecule further returned a clearance in series [2] of 3.6 mL/min/kg. For the same molecule, in [3], the basolateral-to-apical permeability (Papp B→A) at 10 µM was found to be 7.4 ×10⁻⁶ cm/s. In addition, the INH in series [4] is over 10 µM; in [8], over 100 µM. In addition, the fraction unbound in series [5] was found to be 0.41; in [7], 0.73. In addition, the hepatocyte CLint in series [6] is under 2 µL/min/1e6 cells. In addition, the half-life in series [9] is 10.1 h. The thermodynamic solubility in [11] is over 2000 µM. In [12], this molecule had a bioavailability of 2%. In series [13], the intrinsic metabolic clearance (microsomal CLint) was determined as 2.6 µL/min/mg. The Papp A→B at 10 µM in series [14] came out at 0.3 ×10⁻⁶ cm/s.

The values above are taken from ChEMBL document CHEMBL1938343, “Lead optimisation of selective non-zinc binding inhibitors of MMP13. Part 2” (Bioorg Med Chem Lett, 2012).
